The values below come from patent publication US20140243415A1, “COMPOUNDS INHIBITING GALECTIN-1 EXPRESSION, CANCER CELL PROLIFERATION, INVASION, AND TUMORIGENESIS” (ONCOETHIX SA, priority 2011, published 2014).

One assay relates to cdc2 (tyrosine 15). Briefly: Western blot of phosphorylated cdc2 in SQ20B. Type of assay: cell-based, human. The settings on record: pretreated 2 h with UO126 then OTX-008 72 hours. On the procedure: Cells were lysed in buffer containing 50 mM HEPES (pH 7.6), 150 mM NaCl, 1% Triton X-100, 2 mM sodium vanadate, 100 mM NaF, and 0.4 mg/ml phenylmethylsulfonyl fluoride. Equal amounts of protein (30 μg/lane) were subjected to SDS-PAGE and transferred to nitrocellulose membranes. Membranes were blocked with 5% milk in 0.05% Tween 20/phosphate-buffered saline and then incubated with the primary antibody overnight. Membranes were then washed and incubated with the secondary antibody conjugated to horseradish peroxidase. Bands were visualized by using the enhanced chemiluminescence Western blotting detection system. Densitometric analysis was performed under conditions that yielded a linear response. The following antibodies were used: anti-p-cdc2 (tyr15), anti-p-wee1 (ser642), anti-p-p44/42 MAPK (thr202/tyr204), anti-p44/42, anti-p-AKT (ser473), anti-AKT, anti-p-S6 (ser235/236) (Cell Signaling, Saint Quentin Yvelines, France), anti-p-PKCα (ser657) (BD Biosciences, Le-Pont-de-Claix, France) and anti-galectin-1 (Abcam, Cambridge, Mass., USA). All antibodies were used at a 1:1000 dilution.
To study the mechanism of OTX-008-induced inhibition of cell proliferation, the effect of OTX-008 on cell cycle in SQ20B cells was examined (FIG. 5B). […] Activation of cdc2 (cdk1) by de-phosphorylation of tyrosine 15 is required for G2/M transition. […]

Assay [1] has as its system SQ20B cells. Kind of assay: Matrigel invasion assay. It is filed as cell-based, human. The settings on record: for invasion of SQ20B cells, agent alone: 48 h, 1 g/ml galectin-1, 1 μg/ml semaphorin-3A, 10 μM UO126, 3 μM OTX-008. On the procedure: (§1) FIG. 5. Modulation of the galectin-1/semaphorin-3A/neuropilin system in SQ20B cells. A—Effects of galectin-1 (Gall), semaphorin-3A (Sema3A), lactose, with or without four different concentrations of OTX-008 on SQ20B growth at day 6. Embedded figure: Proliferation assay of SQ20B and SQ-shGAL1. B—In vitro matrigel invasion assay of SQ20B exposed to […] galectin-1, 1 μg/ml semaphorin-3A, 200 ng/ml lactose or 10 μM UO126 with or without 3 μM OTX-008. Embedded figure: In vitro matrigel invasion assay of SQ20B and SQ-shGAL1. Invasion was quantified after 48 h by counting the average number of invaded cells.
8 μm membranes were coated with Matrigel (50 μg). The inserts were placed within a 24-well chamber containing 0.6 ml of RPMI 1640 medium with 20% fetal bovine serum as chemoattractant. 10^5 cells were seeded into the inserts suspended in 0.3 ml of serum-free RPMI. After incubation for 48 h at 37° C., the upper surface of the filter was scraped to remove non-invasive cells. Invasive cells were fixed and stained with a Diff Quik detection Kit (Dade Behring, Paris, France). For quantification, the average number of invading cells per field was assessed by counting 9 random fields under a light microscope (400×).
(§2) Galectin-1 may form extracellular lattices counteracting the inhibitory properties of semaphorin-3A on neuropilin-1, eventually leading to the modulation of the vascular endothelial growth factor (VEGFR) and platelet derived growth factor (PDGFR) receptors, fibronectin, and laminin activity SQ20B cells expressed significant mRNA and protein levels of semaphorin-3A and neuropilin-1, PDGFRa&(, VEGF A-D, and VEGFR1-3 (Supplementary FIG. 2A). Thus, SQ20B cells were selected to evaluate the effects of OTX-008 on galectin-1/semaphorin-3A interactions. No difference between SQ20B cells growing in plastic or fibronectin- and laminin-coated plates. […] Galectin-1 and semaphorin-3A induced invasion was inhibited by OTX-008 mimicking the effects of lactose in this model.

Another assay has as its target T1, galectin-1 (Homo sapiens, UniProt P09382).
T1 construct: Western Blot of galectin-1 on SQ20B cells treated with 3 μM OTX-008 for 24 h, 48 h and 72 h; endogenous in cells; host or cells: SQ20B (ATCC)
Briefly: Western blot of galectin-1 in SQ20B cells. It is filed as cell-based. The settings on record: Bortezomib 10 nM with 3 μM OTX-008, 48 h. On the procedure:
FIG. 3. Effects of OTX-008 on galectin-1 expression and localization. A—Western Blot of galectin-1 on SQ20B cells treated with 3 μM OTX-008 for 24 h, 48 h and 72 h. B and C—Immunofluorescence of galectin-1 on SQ20B cells treated with 3 μM OTX-008 for 24 and 48 h. B—OTX-008 treatment decreases galectin-1 immunostaining in SQ20B cells. C—Galectin-1 translocates into the nucleus after OTX-008 exposure. D—Western Blot of p-AKTser473, AKT, p-S6, p-ERK1/2, ERK and p-PKCα in SQ20B cells treated with 3 μM OTX-008 for 10 min, 1 h, 2 h, 5 h and 24 h.
FIG. 4. OTX-008-induced galectin-1 oxydation and degradation by the proteosome system A—Western Blot of galectin-1 on SQ20B cells treated 48 h with 10 μM N-acetylcysteine (NAC), 55 μM β-mercaptoethanol (βME), 1 mM Tempol and 10 μM co-enzyme Q10 (Q10) with or without 3 μM OTX-008. B—Western Blot of galectin-1 on SQ20B cells treated 48 h with 3 μM OTX-008, pretreated 2 h with proteasome inhibitor Bortezomib (10 nM) and then treated 48 h with 3 μM OTX-008 (BTZ—OTX-008) or treated 48 h with 10 nM Bortezomib+3 μM OTX-008 (BTZ+OTX-008).
Cells were lysed in buffer containing 50 mM HEPES (pH 7.6), 150 mM NaCl, 1% Triton X-100, 2 mM sodium vanadate, 100 mM NaF, and 0.4 mg/ml phenylmethylsulfonyl fluoride. Equal amounts of protein (30 μg/lane) were subjected to SDS-PAGE and transferred to nitrocellulose membranes. […]
In general terms: In western blotting, separated proteins are transferred to a membrane and probed.

Assay [2] relates to SQ20B cells. Briefly: In vitro growth inhibition assay. The settings on record: growth at day 6. It is filed as cell-based, human. On the procedure:
as §1
For proliferation assay, cells were seeded in 96-well tissue culture plates at a density of 1.5×10^3 cells/well. MTT assay was conducted daily to determine the number of viable cells in untreated control and treated group. Growth inhibition curves were plotted as a percentage of cells for each experimental condition.
as §2

The subject of assay [3] is panel of human cancer cell lines. Briefly: MTT cell cytotoxicity assay, cell line panel. The conditions noted are these: cultured cancer cells. It is filed as cell-based. On the procedure: Cell survival was determined using the MTT assay (3-[4,5-dimethylthiazol-2-yl]-2,5-diphenyltetrazolium bromide; Sigma, Saint-Quentin Fallavier, France). The conversion of yellow water-soluble tetrazolium MTT into purple insoluble formazan is catalyzed by mitochondrial dehydrogenases and used to estimate the number of viable cells. In brief, cells were seeded in 96-well tissue culture plates at a density of 2×10^3 cells/well. After 72 h drug exposure and 48 h wash-out, cells were incubated with 0.4 mg/ml MTT for 4 hours at 37° C. After incubation, the supernatant was discarded, insoluble formazan precipitates were dissolved in 0.1 ml of DMSO and the absorbance was measured at 560 nm by use of a microplate reader (Thermo, France). […] IC50's were determined as the halves of maximal inhibitory drug concentration for each cell line.
The antiproliferative effects of OTX-008 and anginex were assessed using MTT assay in a panel of human cancer cell lines of human origins expressing various levels of Lgals-1 mRNA and galectin-1 protein expressions (Supplementary Table 1). […] No correlation between mRNA expressions of galectin-2, galectin-3, and galectin-8 as well as semaphorin-3A, semaphorin-3B, neuropilin-1, VEGFR1-3, VEGFA-D, and PDGFRa&P3 and sensitivity to OTX-008 were detected in the panel.
In general terms: Formazan colour is commonly taken as a measure of viable cells.

The next assay has as its system B16 melanoma. The settings on record: syngeneic mouse B16 melanoma model; cited from earlier work.
The test system of assay [4] is human ovarian carcinoma MA148 xenografts. The settings on record: cited from earlier work.

T1 sequence (P09382 whole entry): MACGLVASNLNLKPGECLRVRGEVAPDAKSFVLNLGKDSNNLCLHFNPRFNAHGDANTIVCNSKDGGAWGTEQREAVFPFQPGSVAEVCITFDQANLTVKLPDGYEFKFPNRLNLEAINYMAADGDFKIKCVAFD

`N#CC(=C(/N)Sc1ccccc1N)/C(C#N)=C(/N)Sc1ccccc1N` [UO126, reference compound]: the “OTX-008-mediated cdc2 phosphorylation after UO126 pretreatment” value in the assay on cdc2 (tyrosine 15) is “inhibited the increase of cdc2 phosphorylation”. Besides, in the assay with SQ20B cells [1], the “invasion of SQ20B cells, agent alone” value is recorded as “neither impact cellular invasion alone”.
For the molecule `CC(C)C[C@H](NC(=O)[C@H](Cc1ccccc1)NC(=O)c1cnccn1)B(O)O` [bortezomib, reference compound], the “effect of proteasome inhibition on OTX-008-induced galectin-1 decrease” value at galectin-1 is listed as “counteracts the inhibitory effects of OTX-008 on galectin-1 expression”.
For `OC[C@H]1O[C@@H](O[C@H]2[C@H](O)[C@@H](O)C(O)O[C@@H]2CO)[C@H](O)[C@@H](O)[C@H]1O` (stereo partly drawn) [lactose, reference compound], the “invasion, lactose combined with OTX-008” value in the assay with SQ20B cells [1] (SQ20B, 200 ng/ml lactose with 3 μM OTX-008) is “prevents the inhibition of invasion induced by OTX-008”. Also, the “SQ20B cell proliferation, exogenous agent alone” value (from here on “SQ20B cell proliferation”) in the assay on SQ20B cells [2] was “significant inhibition of cellular proliferation”.
For anginex, the “antiproliferative effects (MTT)” value in assay [3] is “limited effects”. The antitumor activity entry (with B16 melanoma; in assay [4]) was “antitumor activity” throughout.
In the case of “galectin-1: Recombinant galectin-1 purchased from R&D Systems”, in the assay on SQ20B cells [1], the “invasion of SQ20B cells, agent alone” value is given as “enhance invasion”. The “SQ20B cell proliferation” value in the assay on SQ20B cells [2] is listed as “had not effects”.

B1: semaphorin-3A: Recombinant semaphorin-3A purchased from R&D Systems (protein, UniProt Q14563 21-771, looked up)
Semaphorin-3A: NYQNGKNNVPRLKLSYKEMLESNNVITFNGLANSSSYHTFLLDEERSRLYVGAKDHIFSFDLVNIKDFQKIVWPVSYTRRDECKWAGKDILKECANFIKVLKAYNQTHLYACGTGAFHPICTYIEIGHHPEDNIFKLENSHFENGRGKSPYDPKLLTASLLIDGELYSGTAADFMGRDFAIFRTLGHHHPIRTEQHDSRWLNDPKFISAHLISESDNPEDDKVYFFFRENAIDGEHSGKATHARIGQICKNDFGGHRSLVNKWTTFLKARLICSVPGPNGIDTHFDELQDVFLMNFKDPKNPVVYGVFTTSSNIFKGSAVCMYSMSDVRRVFLGPYAHRDGPNYQWVPYQGRVPYPRPGTCPSKTFGGFDSTKDLPDDVITFARSHPAMYNPVFPMNNRPIVIKTDVNYQFTQIVVDRVDAEDGQYDVMFIGTDVGTVLKVVSIPKETWYDLEEVLLEEMTVFREPTAISAMELSTKQQQLYIGSTAGVAQLPLHRCDIYGKACAECCLARDPYCAWDGSACSRYFPTAKRRTRRQDIRNGDPLTHCSDLHHDNHHGHSPEERIIYGVENSSTFLECSPKSQRALVYWQFQRRNEERKEEIRVDDHIIRTDQGLLLRSLQQKDSGNYLCHAVEHGFIQTLLKVTLEVIDTEHLEELLHKDDDGDGSKTKEMSNSMTPSQKVWYRDFMQLINHPNLNTMDEFCEQVWKRDRKQRRQRPGHTPGNSNKWKHLQENKKGRNRRTHEFERAPRSV
Consider B1, for which the “invasion of SQ20B cells, agent alone” value in the assay on SQ20B cells [1] is reported as “enhance invasion”. The “SQ20B cell proliferation” value with SQ20B cells [2] was “concentration-dependent inhibition of cellular proliferation”.
